Test results reported in patent publication US11136297B2, “Compositions and methods for treating cancer” (THE REGENTS OF THE UNIVERSITY OF CALIFORNIA, priority 2016, dated 2021).
Entries after “also recorded” stand apart in the source; their conditions may differ.

Key:
[1] = target: T1, H-Ras(M72C) GppNHp binding to Raf-1-RBD (Homo sapiens, UniProt P01112, M72C); experiment: Ras GppNHp in vitro pull down by His6-MBP-Raf-1-RBD; settings: H-Ras(M72C) pre-labeled with compound
T1 construct: and H-Ras (residues 1-166) were transformed into Escherichia coli; His6; made in house; host or cells: Escherichia coli BL21(DE3)
Experimental: Ras GppNHp In Vitro Pull Down Assay by His6-MBP-Raf-1-RBD. For each His6-MBP-Raf-1-RBD in vitro pull down the total volume was 500 μL. Each reaction had the following final composition: Either 20, 80, 200, 400, or 800 nM Ras GppNHp (from 0.2 mg/mL Ras stock), 75 nM BSA (2.5 μg, 5 μL of 0.5 mg/mL BSA stock), 200 nM of His6-MBP-Raf-1-RBD (5.3 μg, 1.2 μL of 4.38 mg/mL stock of His6-MBP-Raf-1-RBDwitt), and Raf Pull Down Buffer to volume (25 mM Tris (pH 7.2), 150 mM NaCl, 5 mM MgCl2, 1% NP-40, 5% glycerol, 20 mM imidazole). Samples were then mixed by gentle rotation at 4° C. for 30 min. While equilibrating, add 50 μL Ni-NTA slurry (Qiagen) to a cellulose acetate spin cup and spin at 5,000 rpm on a tabletop centrifuge for 30 seconds. Wash the beads with 400 μL of Raf Pull Down Buffer to wash away bead storage buffer. Before adding each pull down solution, take 10 μL and save as a loading control sample. To each spin cup filled with washed Ni-NTA beads, add the remaining equilibrated pull down solution, seal the spin cup with parafilm and let rotate at 4° C. for 30 more minutes. After mixing, centrifuge the sample for 30 seconds at 5,000 rpm. Toss flow through. Wash the beads X 5 with 400 μL of Raf Pull Down Buffer. After last wash, centrifuge one last time to remove any excess buffer stuck to the beads. […] Blots were read out using LICOR compatible secondary antibodies. […]

[2] = target: T2, H-Ras(M72C) GDP binding to SOScat (Homo sapiens, UniProt P01112, M72C); experiment: SOScat pull-down of H-Ras(M72C) GDP; settings: SOScat pull-down of H-Ras(M72C) GDP at various concentrations of H-Ras
T2 construct: and H-Ras (residues 1-166) were transformed into Escherichia coli; His6; made in house; host or cells: Escherichia coli BL21(DE3)

[3] = target: H-Ras(M72C) GppNHp (Homo sapiens, UniProt P01112, M72C); experiment: EDTA catalyzed exchange and subsequent pull-down by Raf-1-RBD (nucleotide preference); assay type: biochemical; set-up: and H-Ras (residues 1-166) were transformed into Escherichia coli; His6; made in house; host or cells: Escherichia coli BL21(DE3); settings: EDTA catalyzed exchange, then pull-down by Raf-1-RBD
Experimental: FIGS. 29A-29D. […] FIG. 29D: Reconstruction of Ras cycle is achieved by inducing nucleotide exchange of 100 nM Ras by various concentrations of SOS^cat for either 1 or 2 hours and subsequent pull-down by Raf-1-RBD.
FIGS. 33A-33D. […] In FIG. 33B) through FIG. 33D), normalized pull-down signals are shown below the blot. S. E. M for each signal, number of replicates, and […] for each comparative Standard T-Test are summarized herein (see Tables 33B, 33C, and 33D). […] Comparative statistics were done for normalized pull-down signals between protein constructs of the same condition (i.e. in FIG. 33B) and FIG. 33C), column 1 for unlabeled and 1 for labeled protein, 2 for unlabeled and 2 for labeled, and so on were statistically compared, and in FIG. 33D) only the +SOS^cat and +GppNHp lanes were compared across protein constructs). FIG. 33A) Cartoon representation of pull down protocol. […] Reported values are quantified pull-down signals normalized to input. FIG. 33B) Cartoon representation of pull down protocol. […] FIG. 33C) Cartoon representation of pull down protocol. […] FIG. 33D) Cartoon representation of pull down protocol. Ras activation is achieved by catalyzing nucleotide exchange by SOS^cat and indirectly reading out activated Ras by subsequent pull down by Raf-1-RBD.

SOS binding [2]: inhibits SOS binding
Structure (SMILES): COc1ccc(-n2ncc(C(=O)NCCCSSCCN(C)C)c2C(F)(F)F)cc1 [Compound 2C07, N-(3-((2-(dimethylamino)ethyl)disulfanyl)propyl)-1-(4-methoxyphenyl)-5-(trifluoromethyl)-1H-pyrazole-4-carboxamide]
Raf-1-RBD binding (pull down), labeled vs unlabeled H-Ras(M72C) [1]: no significant difference in Raf-1-RBD binding
nucleotide preference [3]: alters intrinsic Ras affinity for nucleotide towards GDP; also recorded: alters Ras nucleotide preference
